Reference: paper PMC6556873, “Rapid Covalent-Probe Discovery by Electrophile-Fragment Screening” (Journal of the American Chemical Society, 2019)
Read-outs that look alike come from different tables or passages of the source.

Tests used:
in vitro [1] = test: in vitro; parameters: species or system HB2, HEK293; conditions: human, ccd841 cells
in vitro [2] = test: in vitro; parameters: species or system CCD841, HEK293; conditions: human, hb2 cells, read-out: HB-2 Cells Viability (%)
in vitro [3] = test: in vitro; parameters: species or system HB2, CCD841; conditions: human, hek293 cells
OTUB2 (OTUB2A) = molecular target: T1, OTUB2 (OTUB2A) (Homo sapiens, UniProt Q96DC9); parameters: Intact protein LC/MS covalent labelling, fragments in pools of five, 200 uM each, 4 °C; conditions: 24 h, 4 °C, pool of five; 200 µM; covalent
T1 construct: full length residues 1-234, E. coli BL21(DE3)-R3, His tag removed by TEV, construct 27312 Da
T1 sequence (Q96DC9 1-234): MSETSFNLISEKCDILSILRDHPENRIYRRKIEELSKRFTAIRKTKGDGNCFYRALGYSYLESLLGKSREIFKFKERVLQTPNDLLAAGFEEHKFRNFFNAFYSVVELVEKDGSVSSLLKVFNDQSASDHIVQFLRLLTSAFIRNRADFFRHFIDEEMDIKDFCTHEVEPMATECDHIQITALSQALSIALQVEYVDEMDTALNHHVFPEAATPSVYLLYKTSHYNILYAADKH

PCAF = molecular target: T2, PCAF (Homo sapiens, UniProt Q92831); parameters: Intact protein LC/MS covalent labelling, fragments in pools of five, 200 uM each, 4 °C; conditions: 24 h, 4 °C, pool of five; 200 µM; covalent
T2 construct: gene KAT2B

NUDT7 = molecular target: T3, NUDT7 (Homo sapiens, UniProt P0C024); parameters: Intact protein LC/MS covalent labelling, fragments in pools of five, 200 uM each, 4 °C; conditions: 24 h, 4 °C, pool of five; 200 µM; covalent
T3 construct: residues 14-235, E. coli, pNIC28-Bsa4, N-terminal His6 tag removed by TEV, construct 26672 Da

BSA = molecular target: T4, BSA (Bos taurus, UniProt P02769); parameters: Intact protein LC/MS covalent labelling, fragments in pools of five, 200 uM each, 4 °C; conditions: 24 h, 4 °C, pool of five; 200 µM; covalent
T4 construct: gene ALB
T4 sequence (P02769 whole entry, the tested form may be a part): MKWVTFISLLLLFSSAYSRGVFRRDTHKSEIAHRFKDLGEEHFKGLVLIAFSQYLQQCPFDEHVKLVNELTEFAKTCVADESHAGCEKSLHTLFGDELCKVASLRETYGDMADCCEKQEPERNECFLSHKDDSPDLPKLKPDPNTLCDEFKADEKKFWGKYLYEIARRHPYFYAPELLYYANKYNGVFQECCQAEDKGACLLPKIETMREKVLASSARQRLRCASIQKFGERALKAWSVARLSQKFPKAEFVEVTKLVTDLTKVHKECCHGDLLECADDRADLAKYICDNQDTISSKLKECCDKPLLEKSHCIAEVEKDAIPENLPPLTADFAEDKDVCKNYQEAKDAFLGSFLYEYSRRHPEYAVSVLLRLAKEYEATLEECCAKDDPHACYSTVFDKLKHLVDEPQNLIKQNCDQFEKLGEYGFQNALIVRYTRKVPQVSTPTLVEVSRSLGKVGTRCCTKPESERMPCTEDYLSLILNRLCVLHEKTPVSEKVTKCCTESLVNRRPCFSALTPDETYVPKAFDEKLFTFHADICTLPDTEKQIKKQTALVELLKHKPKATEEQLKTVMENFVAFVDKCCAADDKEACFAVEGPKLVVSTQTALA

T3 sequence (P0C024 14-235): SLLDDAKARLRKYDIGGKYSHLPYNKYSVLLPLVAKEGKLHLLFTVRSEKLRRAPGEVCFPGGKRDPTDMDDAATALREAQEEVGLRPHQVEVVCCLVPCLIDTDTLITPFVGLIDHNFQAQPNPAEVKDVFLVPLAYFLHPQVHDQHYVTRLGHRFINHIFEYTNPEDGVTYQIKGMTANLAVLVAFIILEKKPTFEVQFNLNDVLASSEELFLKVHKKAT
T2 sequence (Q92831 whole entry, the tested form may be a part): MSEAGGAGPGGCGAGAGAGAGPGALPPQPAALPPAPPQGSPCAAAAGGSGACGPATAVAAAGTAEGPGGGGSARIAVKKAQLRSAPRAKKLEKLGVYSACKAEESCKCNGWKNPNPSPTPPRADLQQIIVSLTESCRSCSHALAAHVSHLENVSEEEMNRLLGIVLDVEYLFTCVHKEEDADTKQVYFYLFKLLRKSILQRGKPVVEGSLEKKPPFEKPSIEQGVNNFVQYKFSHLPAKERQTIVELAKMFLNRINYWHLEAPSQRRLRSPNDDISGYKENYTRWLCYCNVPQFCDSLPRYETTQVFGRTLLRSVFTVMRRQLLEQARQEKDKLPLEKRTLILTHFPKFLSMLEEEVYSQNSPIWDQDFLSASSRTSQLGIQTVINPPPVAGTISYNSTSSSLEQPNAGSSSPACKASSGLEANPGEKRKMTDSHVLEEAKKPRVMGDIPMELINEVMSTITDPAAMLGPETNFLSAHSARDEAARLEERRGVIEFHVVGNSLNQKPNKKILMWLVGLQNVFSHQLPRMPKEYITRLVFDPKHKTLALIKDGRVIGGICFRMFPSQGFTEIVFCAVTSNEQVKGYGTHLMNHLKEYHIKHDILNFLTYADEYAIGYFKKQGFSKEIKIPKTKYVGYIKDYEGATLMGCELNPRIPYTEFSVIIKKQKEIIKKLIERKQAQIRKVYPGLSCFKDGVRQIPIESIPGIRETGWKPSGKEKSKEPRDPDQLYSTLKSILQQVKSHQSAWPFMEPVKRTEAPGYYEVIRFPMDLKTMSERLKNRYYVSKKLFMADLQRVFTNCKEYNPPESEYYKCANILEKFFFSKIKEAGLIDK

Row | SMILES | viability at 48 h, 10 µM (in vitro [1]) | viability at 48 h, 10 µM (in vitro [2]) | viability at 48 h, 10 µM (in vitro [3]) | OTUB2 (OTUB2 (OTUB2A)) | PCAF (PCAF) | NUDT7 (NUDT7) | BSA (BSA)
1 | C=CC(=O)N1CCCC(Cc2nccn2C)C1 (stereo not drawn) [PCM-0102433] | 97.8% | 94.7% | 92.9% | 0.26 | 0.44 | 0.2 | 0
2 | CCC1CN(C(=O)CCl)CCO1 (stereo not drawn) [PCM-0102436] | 79.3% | 85.5% | 71.4% | 0 | 0 | 0 | 0
3 | C=CC(=O)N1CCC(n2nnc3c2CCCC3)CC1 [PCM-0102437] | 92.9% | 106% | 91.5% | 0 | 0 | 0 | 0
4 | CC(c1ccc(F)c(F)c1)N(C)C(=O)CCl (stereo not drawn) [PCM-0102438] | 39.3% | 23.2% | 16.4% | 0.08 | 0 | 0.14 | 0
5 | C=CC(=O)N1CCOC2(CCc3ccccc32)C1 (stereo not drawn) [PCM-0102439] | 105% | 99.3% | 92.3% | 0 | 0 | 0 | 0
6 | C=CC(=O)NC1CCCCC1n1cccn1 (stereo not drawn) [PCM-0102440] | 100% | 91.4% | 98.5% | 0 | 0 | 0.08 | 0
7 | C=CC(=O)N1CCN(c2nc3ccccc3o2)C(C)C1 (stereo not drawn) [PCM-0102441] | 99.4% | 96.7% | 88.3% | 0 | 0 | 0 | 0
8 | C=CC(=O)N1CC2CC3CC(C2)CC1C3 [PCM-0102443] | 115% | 99.9% | 97.7% | 0.24 | 0 | 0 | 0
9 | C=CC(=O)N1CCC(N2CCS(=O)(=O)CC2)CC1 [PCM-0102444] | 109% | 102% | 93.6% | 0 | 0 | 0 | 0
10 | C=CC(=O)NC1(CO)Cc2ccccc2C1 [PCM-0102446] | 103% | 101% | 88.4% | 0 | 0 | 0.38 | 0
11 | C=CC(=O)N1C(C)CNCC1C.O=C(O)C(F)(F)F (stereo not drawn) [PCM-0102447] | 109% | 104% | 105% | 0 | 0 | 0 | 0
12 | C=CC(=O)NCC1=CCCOC1 [PCM-0102448] | 104% | 102% | 79.4% | 0 | 0 | 0.05 | 0
13 | C=CC(=O)N1CCN(C(=O)OCC(C)C)CC1 [PCM-0102449] | 80.1% | 103% | 76.6% | 0 | 0 | 0 | 0
14 | C=CC(=O)NC1(C2CC2)CCOCC1 [PCM-0102450] | 106% | 96.2% | 111% | 0 | 0 | 0 | 0
15 | C=CC(=O)N1CCCN(C(=O)Oc2ccccc2)CC1 [PCM-0102451] | 105% | 96.2% | 93.9% | 0 | 0 | 0 | 0
16 | N#Cc1c(NC(=O)CCl)sc2c1CCC2 [PCM-0102452] | 93.5% | 87.2% | 96.6% | 0.07 | 0 | 0 | 0
17 | C=CC(=O)Nc1ccc(Cl)c(C#N)c1 [PCM-0102453] | 86.4% | 85.7% | 59.5% | 0 | 0 | 0 | 0

Row | SMILES | viability at 48 h, 10 µM (in vitro [1]) | viability at 48 h, 10 µM (in vitro [2]) | viability at 48 h, 10 µM (in vitro [3]) | OTUB2 (OTUB2 (OTUB2A)) | PCAF (PCAF) | NUDT7 (NUDT7) | BSA (BSA)
18 | C=CC(=O)Nc1sc2c(c1C#N)CCCC2 [PCM-0102455] | 72.5% | 64.1% | 81.4% | 0 | 0 | 1 | 0
19 | O=C(CCl)NCC(F)(F)F [PCM-0102456] | 99.4% | 102% | 91.9% | 0 | 0 | 0 | 0
20 | C=CC(=O)N1CCC(S(=O)(=O)NC)C1 (stereo not drawn) [PCM-0102463] | 104% | 97.2% | 99.6% | 0 | 0 | 0 | 0
21 | N#CC1(NC(=O)CCl)CCCCCC1 [PCM-0102465] | 72.3% | 80.7% | 43.5% | 0 | 0 | 0 | 0
22 | N#CSc1ccc(NC(=O)CCl)c(Br)c1 [PCM-0102466] | 29.3% | 23.2% | 48.4% | 0 | 0 | 0 | 0
23 | O=C(CCl)N1CCN(S(=O)(=O)c2ccccc2)CC1 [PCM-0102468] | 54.9% | 12.6% | 15% | 0.08 | 0 | 0 | 0
24 | O=C(CCl)NNC(=O)c1cccc(Cl)c1 [PCM-0102470] | 81.3% | 84.7% | 94.8% | 0.38 | 0 | 0 | 0
25 | CC(C)n1nccc1NC(=O)CCl.Cl [PCM-0102472] | 107% | 92.7% | 101% | 0 | 0 | 0 | 0
26 | CC(c1ccccc1)N(C)C(=O)CCl (stereo not drawn) [PCM-0102478] | 60.7% | 27.5% | 27.5% | 0 | 0 | 0.1 | 0
27 | C=CC(=O)NC1CCCN(c2cnn(C)c2)C1 (stereo not drawn) [PCM-0102480] | 96.4% | 99.5% | 91.8% | 0 | 0 | 0 | 0
28 | C=CC(=O)NCC1CC12CCOCC2 (stereo not drawn) [PCM-0102481] | 110% | 97% | 103% | 0 | 0 | 0 | 0
29 | C=CC(=O)NCc1ccon1 [PCM-0102482] | 92.9% | 98.9% | 90.3% | 0 | 0 | 0 | 0
30 | C=CC(=O)N1CCCc2[nH]c3ccc(F)cc3c2C1 [PCM-0102485] | 106% | 95.2% | 105% | 0 | 0 | 0 | 0.12
31 | C=CC(=O)NC1CCc2cnn(C(C)C)c2C1 (stereo not drawn) [PCM-0102487] | 120% | 95.5% | 97.7% | 0 | 0 | 0 | 0
32 | C=CC(=O)N1CCCN(S(=O)(=O)c2cccc3cnccc23)CC1 [PCM-0102491] | 100% | 99.3% | 99.9% | 0 | 0 | 0 | 0
33 | C=CC(=O)Nc1ccccc1OC [PCM-0102493] | 105% | 98.2% | 74.7% | 0 | 0 | 0 | 0
